Test results published in US20010041682A1, “Dinucleotides useful for the treatment of lung disease” (priority 1995, published 2001).

How the values were obtained:
airway epithelia = experiment: Cl− secretion by cultured normal airway cells on permeable supports (Example 1); type: cell-based
Description: (§1) Normal airway cells were cultured on permeable supports and Cl^− secretion assayed as previously described in M. J. Stutts, et al., Am. J. Physiol. 267, C1442-C1451 (1994). Cl^− secretion was measured after administration of the dinucleotide A2P4 (Sigma Chemicals, St. Louis, Mo.). Amiloride was added to block airway epithelial sodium absorption.
Moreover, the administration of A2P4 had no effect on Cl^− secretion in airway epithelia pre-stimulated with UTP, which is known to activate non-CFTR Cl^− channels. […] Stimulation of this receptor is thus a therapeutic strategy for certain lung diseases, including cystic fibrosis.

[1] = test system: Cultured airway epithelia; experiment: Cl− secretion by cultured airway epithelia, UTP compared with U2P4 (Example 2); type: cell-based; details: for Mean Cl− secretion Induced: 10^−4 M on mucosal surface, tissues pretreated with amiloride (10^−4 M); for Effectiveness (efficacy) on Cl− secretion, UTP compared with U2P4: 10^−4 M, the highest concentration tested, amiloride (10^−4 M) pretreated
Description: as §1
Studies were carried out according to the method described in Example 1 to compare the effectiveness (efficacy) of UTP and U2P4. Cultured airway epithelia were exposed to a concentration of from 10^−9 M to […] of either UTP or U2P4 in 6 ml of solution circulating over the mucosal surface. The tissues were pretreated with amiloride (10^−4 M) to block Na^+ absorption. Under these conditions, the current generated by the tissues is due to Cl^− secretion. UTP and U2P4 induced a similar pattern of Cl^− secretion. At 10^−4 M, the highest concentration tested, UTP and U2P4 were equieffective (equiefficacious).

| Structure (SMILES) | Effect on Cl− secretion (airway epithelia; airway epithelia pre-stimulated with UTP) | Effect on Cl− secretion (airway epithelia; exposed to the basolateral surface of the airway epithelial preparation, amiloride added) | Effect on Cl− secretion (airway epithelia; luminal surface, airway epithelia treated with forskolin, amiloride added) | Mean Cl− secretion Induced [1] [μA/cm^2] | Effectiveness (efficacy) on Cl− secretion, UTP compared with U2P4 [1] |
| --- | --- | --- | --- | --- | --- |
| Nc1ncnc2c1ncn2[C@@H]1O[C@H](COP(=O)(O)OP(=O)(O)OP(=O)(O)OP(=O)(O)OC[C@H]2O[C@@H](n3cnc4c(N)ncnc43)[C@H](O)[C@@H]2O)[C@@H](O)[C@H]1O [A2P4] | no effect | little effect | stimulated additional Cl^− secretion | – | – |
| O=c1ccn([C@@H]2O[C@H](COP(=O)(O)OP(=O)(O)OP(=O)(O)OP(=O)(O)OC[C@H]3O[C@@H](n4ccc(=O)[nH]c4=O)[C@H](O)[C@@H]3O)[C@@H](O)[C@H]2O)c(=O)[nH]1 [U2P4, UppppU] | – | – | – | 43.8 | equieffective |
| O=c1ccn([C@@H]2O[C@H](COP(=O)(O)OP(=O)(O)OP(=O)(O)O)[C@@H](O)[C@H]2O)c(=O)[nH]1 [UTP, reference compound] | – | – | – | 45.3 | equieffective |
